Laboratory results as given in the supplement of paper PMC10307832.

Columns and labels:
[1] = compound: COC1=CC=C(C=C1)CN2C=CC3=C2C=C(C=C3)C(=O)NO + CC(=O)Nc1cccc(-n2c(=O)n(C3CC3)c(=O)c3c(Nc4ccc(I)cc4F)n(C)c(=O)c(C)c32)c1 [Trametinib] (partner 0.02 µM); test: relative viability (nuclei count vs DMSO), 5 days (fraction); higher = more cells survive
Procedure, shortened: (§1)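 Relative viability is defined as nuclei in treated wells over nuclei in vehicle wells. Duplicate plates were run and medians reported. Lung cancer cell lines in 1536-well plates were dosed by pin tool one day after seeding, with one drug or with a fixed anchor-drug dose plus five library-drug doses (not always all listed) in √10 steps, and nuclei were counted after 5 days.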

[2] = compound: COC1=CC=C(C=C1)CN2C=CC3=C2C=C(C=C3)C(=O)NO + NC(=O)Nc1cc(-c2cccc(F)c2)sc1C(=O)N[C@H]1CCCNC1 [AZD7762] (partner 0.2 µM); test: as above
Procedure, shortened: as §1

Cell Line	relative viability ([1]; first compound 0.08 µM)	relative viability ([1]; first compound 0.253 µM)	relative viability ([1]; first compound 0.8 µM)	relative viability ([1]; first compound 2.53 µM)	relative viability ([1]; first compound 8 µM)	relative viability ([2]; first compound 0.08 µM)	relative viability ([2]; first compound 0.253 µM)	relative viability ([2]; first compound 0.8 µM)	relative viability ([2]; first compound 2.53 µM)	relative viability ([2]; first compound 8 µM)
201T	0.769	0.733	0.773	0.743	0.701	0.561	0.676	0.528	0.642	0.586
A-427	0.346	–	0.813	0.781	0.675	0.544	–	0.671	0.696	0.476
ABC-1	–	–	–	–	–	–	0.692	0.871	0.796	0.756
BEN	0.936	1.03	0.942	0.889	0.961	0.628	0.507	0.628	0.594	0.549
CAL-12T	0.387	0.347	0.33	0.335	0.301	0.572	0.537	0.647	0.675	0.589
COR-L23	0.5	0.617	0.627	0.615	0.522	–	–	–	–	–
COR-L 105	0.348	0.469	0.443	0.471	0.385	–	–	–	–	–
ChaGo-K-1	–	0.924	0.887	0.861	0.803	–	0.861	0.881	0.766	0.762
EKVX	–	0.28	0.345	0.366	0.305	–	0.637	0.699	0.803	0.712
EMC-BAC-2	0.629	–	0.971	0.95	0.803	0.878	–	1.22	1.11	1
EPLC-272H	–	0.314	0.297	0.308	0.238	–	0.253	0.196	0.229	0.185
H3255	0.593	0.608	0.618	0.672	0.547	0.925	0.774	0.831	0.843	0.744
HARA	–	0.607	0.668	0.849	0.705	–	0.588	0.397	0.251	0.202
HCC-15	0.334	0.355	0.424	0.41	0.372	1.3	1.19	1.23	1.58	1.1
HCC-44	1.04	1.02	0.996	1.04	1.06	0.938	1.01	0.99	1.01	1.04
HCC-78	0.671	0.807	0.634	0.798	0.613	0.575	1.21	0.589	0.512	0.496
HCC-366	0.293	0.28	0.328	0.295	0.333	0.239	0.265	0.302	0.235	0.203
HCC-827	0.539	0.537	0.528	0.533	0.514	0.228	0.259	0.159	0.218	0.196
HOP-62	0.362	0.399	0.371	0.391	0.375	0.358	0.691	0.72	0.554	0.484
LC-2-ad	0.841	0.899	0.882	0.938	0.991	0.905	0.874	0.865	0.898	0.835
LCLC-97TM1	–	0.201	0.228	0.19	0.204	–	0.267	0.205	0.162	0.188
LCLC-103H	0.653	0.65	0.715	0.694	0.679	0.764	0.851	0.809	0.851	0.679
LK-2	0.534	0.694	0.658	0.686	0.646	–	0.439	0.45	0.352	0.375
LOU-NH91	–	0.754	0.778	0.808	0.766	–	0.749	0.756	0.748	0.705
LU99A	–	0.61	0.553	0.548	0.455	–	0.392	0.384	0.276	0.208

Cell Line	relative viability ([1]; first compound 0.08 µM)	relative viability ([1]; first compound 0.253 µM)	relative viability ([1]; first compound 0.8 µM)	relative viability ([1]; first compound 2.53 µM)	relative viability ([1]; first compound 8 µM)	relative viability ([2]; first compound 0.08 µM)	relative viability ([2]; first compound 0.253 µM)	relative viability ([2]; first compound 0.8 µM)	relative viability ([2]; first compound 2.53 µM)	relative viability ([2]; first compound 8 µM)
LXF-289	–	0.698	0.712	0.677	0.677	–	1.06	1.04	1.07	1.02
NCI-H23	0.298	0.445	0.397	0.381	0.283	0.257	0.312	0.32	0.271	0.154
NCI-H322M	–	–	0.493	0.495	0.485	–	–	0.579	0.668	0.491
NCI-H358	–	0.165	0.153	0.15	0.112	–	0.54	0.443	0.557	0.354
NCI-H441	0.353	0.491	0.61	0.422	0.449	1.08	1.3	1.19	1.2	0.887
NCI-H460	0.157	0.123	0.153	0.178	0.0809	0.536	0.485	0.588	0.614	0.515
NCI-H520	0.426	0.723	0.74	0.555	0.723	–	–	–	–	–
NCI-H522	–	0.812	0.678	0.767	0.64	–	0.792	1.06	0.951	0.612
NCI-H596	0.64	0.797	0.923	0.776	0.758	1.12	1.18	1.07	1.19	0.937
NCI-H647	0.481	0.365	0.493	0.669	0.439	–	0.437	0.495	0.361	0.369
NCI-H650	1.07	0.981	1	1.03	1.04	0.944	0.686	0.816	1.1	0.763
NCI-H661	–	0.634	0.611	0.533	0.457	–	–	–	–	–
NCI-H727	0.418	0.383	0.377	0.37	0.371	0.653	0.538	0.57	0.503	0.654
NCI-H838	0.346	0.472	0.561	0.547	0.429	0.694	0.981	0.949	0.967	0.909
NCI-H1355	0.42	0.433	0.403	0.473	0.44	0.392	0.817	0.745	0.761	0.574
NCI-H1395	–	1.07	1.06	0.96	0.995	–	0.394	0.382	0.398	0.397
NCI-H1437	0.452	0.494	0.538	0.66	0.57	1.02	1.13	1.03	1.13	1.1
NCI-H1648	0.413	0.42	0.461	0.583	0.438	0.523	0.584	0.723	0.447	0.525
NCI-H1650	0.543	0.595	0.645	0.624	0.539	–	–	–	–	–
NCI-H1651	0.798	0.917	0.867	0.787	0.828	0.414	0.437	0.394	0.406	0.369
NCI-H1666	0.835	0.881	0.849	0.934	0.793	0.799	0.872	0.782	0.784	0.765
NCI-H1703	–	–	–	–	–	0.176	0.167	0.146	0.123	0.121
NCI-H1734	–	0.739	0.725	0.716	0.732	–	0.612	0.559	0.567	0.481
NCI-H1755	0.711	0.77	0.791	0.758	0.753	0.395	0.439	0.497	0.516	0.35
NCI-H1792	0.459	0.426	0.394	0.379	0.423	0.755	0.792	0.716	0.592	0.55

Cell Line	relative viability ([1]; first compound 0.08 µM)	relative viability ([1]; first compound 0.253 µM)	relative viability ([1]; first compound 0.8 µM)	relative viability ([1]; first compound 2.53 µM)	relative viability ([1]; first compound 8 µM)	relative viability ([2]; first compound 0.08 µM)	relative viability ([2]; first compound 0.253 µM)	relative viability ([2]; first compound 0.8 µM)	relative viability ([2]; first compound 2.53 µM)	relative viability ([2]; first compound 8 µM)
NCI-H1793	–	0.471	0.449	0.416	0.336	–	0.726	0.444	0.557	0.406
NCI-H1915	0.282	0.297	0.305	0.32	0.31	0.494	0.712	0.676	0.705	0.606
NCI-H1944	–	0.415	0.449	0.421	0.429	–	0.516	0.481	0.475	0.428
NCI-H1975	0.308	0.348	0.359	0.413	0.349	0.655	0.766	0.775	0.768	0.576
NCI-H1993	0.526	0.564	0.518	0.514	0.543	0.746	0.745	0.857	0.8	0.85
NCI-H2009	0.288	0.264	0.261	0.248	0.194	–	–	–	–	–
NCI-H2023	0.478	0.594	0.474	0.589	0.48	–	–	–	–	–
NCI-H2085	0.528	0.665	0.692	0.524	0.406	0.971	0.953	1.07	1	0.942
NCI-H2087	0.163	0.204	0.232	0.181	0.154	1.31	1.24	1.5	1.17	1.25
NCI-H2126	0.569	0.592	0.6	0.622	0.581	1	1.03	0.992	1.09	0.962
NCI-H2170	0.888	0.931	0.867	0.897	0.865	0.859	0.797	0.849	0.826	0.711
NCI-H2228	0.386	0.664	0.831	0.598	0.433	–	–	–	–	–
NCI-H2342	0.815	0.901	0.759	0.971	0.861	0.475	0.44	0.468	0.379	0.389
NCI-H2347	0.268	0.313	0.303	0.283	0.235	0.598	0.748	0.967	0.732	0.677
NCI-H2405	0.544	–	0.641	0.686	0.625	0.706	–	0.85	0.796	0.505
NCI-H3122	0.276	0.13	0.225	0.217	0.222	0.977	1.02	1.04	0.999	0.819
PC-3 [JPC-3]	0.641	–	0.75	0.702	0.683	0.799	–	0.965	0.869	0.652
PC-14	0.741	0.687	0.753	0.722	0.734	0.263	0.276	0.393	0.315	0.381
RERF-LC-KJ	0.865	1.06	0.827	0.892	0.809	0.888	0.773	0.918	0.948	0.967
SK-LU-1	0.347	0.537	0.51	0.579	0.447	–	–	–	–	–
SK-MES-1	0.549	0.551	0.549	0.586	0.575	–	–	–	–	–
SW 900	0.722	0.774	0.872	0.674	0.766	0.646	0.596	0.579	0.597	0.403
UMC-11	0.225	0.708	0.712	0.735	0.666	–	–	–	–	–
